Experimental data reported in US20240109917A1 (ACTELION PHARMACEUTICALS LTD, priority 2020, published 2024).

These molecules were tested against VEGFR2, unphosphorylated (Homo sapiens (Human), UniProt P35968) (assay: VEGFR ADP GLO Assay).
Assay type: biochemical

Chain of VEGFR2, unphosphorylated (P35968 20-1356): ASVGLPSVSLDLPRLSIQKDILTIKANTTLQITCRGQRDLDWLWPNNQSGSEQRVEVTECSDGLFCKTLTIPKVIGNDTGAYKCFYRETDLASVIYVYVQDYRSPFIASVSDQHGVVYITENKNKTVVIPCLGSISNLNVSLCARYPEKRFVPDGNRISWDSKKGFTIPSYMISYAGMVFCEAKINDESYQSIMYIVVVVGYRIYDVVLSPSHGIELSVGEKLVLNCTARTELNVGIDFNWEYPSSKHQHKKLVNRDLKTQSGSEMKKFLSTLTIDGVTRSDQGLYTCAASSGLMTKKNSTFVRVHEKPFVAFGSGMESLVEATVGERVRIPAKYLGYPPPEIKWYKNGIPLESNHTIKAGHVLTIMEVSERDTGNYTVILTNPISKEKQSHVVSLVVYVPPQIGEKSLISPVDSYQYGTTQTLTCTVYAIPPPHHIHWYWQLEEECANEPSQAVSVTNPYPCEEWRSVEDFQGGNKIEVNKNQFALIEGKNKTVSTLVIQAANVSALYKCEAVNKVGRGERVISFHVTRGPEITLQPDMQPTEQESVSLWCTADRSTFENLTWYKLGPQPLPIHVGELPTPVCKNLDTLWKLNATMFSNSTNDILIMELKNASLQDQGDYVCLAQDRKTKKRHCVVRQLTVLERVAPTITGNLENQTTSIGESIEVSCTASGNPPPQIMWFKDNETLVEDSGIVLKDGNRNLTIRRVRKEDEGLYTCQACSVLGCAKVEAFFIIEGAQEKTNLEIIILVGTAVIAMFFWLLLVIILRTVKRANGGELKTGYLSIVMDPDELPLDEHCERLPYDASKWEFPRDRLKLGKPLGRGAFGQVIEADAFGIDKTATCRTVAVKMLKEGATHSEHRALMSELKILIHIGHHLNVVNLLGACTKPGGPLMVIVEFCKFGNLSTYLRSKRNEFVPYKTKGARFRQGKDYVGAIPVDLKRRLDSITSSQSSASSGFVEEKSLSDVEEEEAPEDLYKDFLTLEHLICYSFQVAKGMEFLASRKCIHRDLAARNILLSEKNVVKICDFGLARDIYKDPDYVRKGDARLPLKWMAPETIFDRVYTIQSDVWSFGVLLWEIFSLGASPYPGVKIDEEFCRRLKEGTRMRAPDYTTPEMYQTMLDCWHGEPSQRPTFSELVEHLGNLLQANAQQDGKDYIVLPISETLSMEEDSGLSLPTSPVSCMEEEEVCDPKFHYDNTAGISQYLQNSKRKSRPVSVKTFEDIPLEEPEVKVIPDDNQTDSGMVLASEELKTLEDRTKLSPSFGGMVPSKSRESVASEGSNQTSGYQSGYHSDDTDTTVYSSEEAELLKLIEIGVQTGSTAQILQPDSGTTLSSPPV

Row | Compound | IC50 [µM]
1 | Cc1ncc(NC(=O)CN(C)C2CCOCC2)cc1NC(=O)c1cnn2cc(-c3cnn(C(C)C#N)c3)sc12 (centres unmarked) [Example 297, 2-(1-(1-cyanoethyl)-1H-pyrazol-4-yl)-N-(2-methyl-5-(2-(methyl(tetrahydro-2H-pyran-4-yl)amino)acetamido)pyridin-3-yl)pyrazolo[5,1-b]thiazole-7-carboxamide] | > 7.5
2 | Cc1ncc(NC(=O)CN(C)C2CCOCC2)cc1NC(=O)c1cnn2cc(-c3cnn(CS(C)(=O)=O)c3)sc12 [Example 298, N-(2-methyl-5-(2-(methyl(tetrahydro-2H-pyran-4-yl)amino)acetamido)pyridin-3-yl)-2-(1-((methylsulfonyl)methyl)-1H-pyrazol-4-yl)pyrazolo[5,1-b]thiazole-7-carboxamide] | > 7.5
3 | Cc1ncc(NC(=O)CN(C)C2CCOCC2)cc1NC(=O)c1cnn2cc(-c3cnn(CC#N)c3)sc12 [Example 299, 2-(1-(cyanomethyl)-1H-pyrazol-4-yl)-N-(2-methyl-5-(2-(methyl(tetrahydro-2H-pyran-4-yl)amino)acetamido)pyridin-3-yl)pyrazolo[5,1-b]thiazole-7-carboxamide] | > 7.5
4 | Cc1ncc(NC(=O)CN(C)C2CCOCC2)cc1NC(=O)c1cnn2cc(-c3cnn(CC(N)=O)c3)sc12 [Example 300, 2-(1-(2-amino-2-oxoethyl)-1H-pyrazol-4-yl)-N-(2-methyl-5-(2-(methyl(tetrahydro-2H-pyran-4-yl)amino)acetamido)pyridin-3-yl)pyrazolo[5,1-b]thiazole-7-carboxamide] | > 7.5
5 | COc1ncccc1-c1cn2ncc(C(=O)Nc3cc(C(=O)NCCN4CCC[C@@H]4C)cnc3C)c2s1 [Example 301, (S)-2-(2-methoxypyridin-3-yl)-N-(2-methyl-5-((2-(2-methylpyrrolidin-1-yl)ethyl)carbamoyl)pyridin-3-yl)pyrazolo[5,1-b]thiazole-7-carboxamide] | > 7.5
6 | Cc1ncc(NC(=O)CC23CCCN2CCC3)cc1NC(=O)c1cnn2cc(-c3cnn(C)c3)sc12 [Example 302, 2-(1-methyl-1H-pyrazol-4-yl)-N-(2-methyl-5-(2-(tetrahydro-1H-pyrrolizin-7a(5H)-yl)acetamido)pyridin-3-yl)pyrazolo[5,1-b]thiazole-7-carboxamide] | > 7.5
7 | Cc1ncc(NC(=O)CN2CCCC(O)C2)cc1NC(=O)c1cnn2cc(-c3cnn(C)c3)sc12 (centres unmarked) [Example 303, N-(5-(2-(3-hydroxypiperidin-1-yl)acetamido)-2-methylpyridin-3-yl)-2-(1-methyl-1H-pyrazol-4-yl)pyrazolo[5,1-b]thiazole-7-carboxamide] | > 7.5
8 | Cc1ncc(NC(=O)[C@@H]2C[C@@H](C)CN2C)cc1NC(=O)c1cnn2cc(-c3cnn(C)c3)sc12 [Example 304, N-(5-((2S,4R)-1,4-dimethylpyrrolidine-2-carboxamido)-2-methylpyridin-3-yl)-2-(1-methyl-1H-pyrazol-4-yl)pyrazolo[5,1-b]thiazole-7-carboxamide] | > 7.5
9 | Cc1ncc(NC(=O)C[C@@H]2CCCCN2C(C)C)cc1NC(=O)c1cnn2cc(-c3cnn(C)c3)sc12 [Example 305, (S)—N-(5-(2-(1-isopropylpiperidin-2-yl)acetamido)-2-methylpyridin-3-yl)-2-(1-methyl-1H-pyrazol-4-yl)pyrazolo[5,1-b]thiazole-7-carboxamide] | > 7.5
10 | Cc1ncc(NC(=O)C(C)N2CCCCCC2)cc1NC(=O)c1cnn2cc(-c3cnn(C)c3)sc12 (centres unmarked) [Example 306, N-(5-(2-(azepan-1-yl)propanamido)-2-methylpyridin-3-yl)-2-(1-methyl-1H-pyrazol-4-yl)pyrazolo[5,1-b]thiazole-7-carboxamide] | > 7.5
11 | Cc1ncc(NC(=O)CC(C)N2CCCCC2)cc1NC(=O)c1cnn2cc(-c3cnn(C)c3)sc12 (centres unmarked) [Example 307, 2-(1-methyl-1H-pyrazol-4-yl)-N-(2-methyl-5-(3-(piperidin-1-yl)butanamido)pyridin-3-yl)pyrazolo[5,1-b]thiazole-7-carboxamide] | > 7.5
12 | Cc1ncc(NC(=O)[C@@H]2CCCN3CCCC[C@H]23)cc1NC(=O)c1cnn2cc(-c3cnn(C)c3)sc12 [Example 308, 2-(1-methyl-1H-pyrazol-4-yl)-N-(2-methyl-5-((1R,9aR)-octahydro-2H-quinolizine-1-carboxamido)pyridin-3-yl)pyrazolo[5,1-b]thiazole-7-carboxamide] | > 7.5
13 | COc1ncccc1-c1cn2ncc(C(=O)Nc3cc(NC(=O)C[C@H]4CCCN4C(C)C)cnc3C)c2s1 [Example 309, (R)—N-(5-(2-(1-isopropylpyrrolidin-2-yl)acetamido)-2-methylpyridin-3-yl)-2-(2-methoxypyridin-3-yl)pyrazolo[5,1-b]thiazole-7-carboxamide] | > 7.5
14 | COc1ncccc1-c1cn2ncc(C(=O)Nc3cc(NC(=O)CN4CCOCC45CCC5)cnc3C)c2s1 [Example 310, N-(5-(2-(8-oxa-5-azaspiro[3.5]nonan-5-yl)acetamido)-2-methylpyridin-3-yl)-2-(2-methoxypyridin-3-yl)pyrazolo[5,1-b]thiazole-7-carboxamide] | > 7.5
15 | CC[C@H]1CN(CC(=O)Nc2cnc(C)c(NC(=O)c3cnn4cc(-c5cccnc5OC)sc34)c2)CCO1 [Example 311, (S)—N-(5-(2-(2-ethylmorpholino)acetamido)-2-methylpyridin-3-yl)-2-(2-methoxypyridin-3-yl)pyrazolo[5,1-b]thiazole-7-carboxamide] | > 7.5
16 | Cc1ncc(NC(=O)CN2CCCC2)cc1NC(=O)c1cnn2cc(-c3cccnc3O)sc12 [Example 312, 2-(2-hydroxypyridin-3-yl)-N-(2-methyl-5-(2-(pyrrolidin-1-yl)acetamido)pyridin-3-yl)pyrazolo[5,1-b]thiazole-7-carboxamide] | > 7.5
17 | COc1ncccc1-c1cn2ncc(C(=O)Nc3cc(NC(=O)CN4CCCC4)cnc3C)c2s1 [Example 313, 2-(2-methoxypyridin-3-yl)-N-(2-methyl-5-(2-(pyrrolidin-1-yl)acetamido)pyridin-3-yl)pyrazolo[5,1-b]thiazole-7-carboxamide] | > 7.5
18 | Cc1ncc(NC(=O)C2CCCCN2C(C)C)cc1NC(=O)c1cnn2cc(-c3cccnc3O)sc12 (centres unmarked) [Example 314, 2-(2-hydroxypyridin-3-yl)-N-(5-(1-isopropylpiperidine-2-carboxamido)-2-methylpyridin-3-yl)pyrazolo[5,1-b]thiazole-7-carboxamide] | > 7.5
19 | COc1ncccc1-c1cn2ncc(C(=O)Nc3cc(NC(=O)C4CCCCN4C(C)C)cnc3C)c2s1 (centres unmarked) [Example 315, N-(5-(1-isopropylpiperidine-2-carboxamido)-2-methylpyridin-3-yl)-2-(2-methoxypyridin-3-yl)pyrazolo[5,1-b]thiazole-7-carboxamide] | 4.99
20 | Cc1ncc(NC(=O)[C@@H]2C[C@H](C)CN2C)cc1NC(=O)c1cnn2cc(-c3cccnc3O)sc12 [Example 316, N-(5-((2S,4S)-1,4-dimethylpyrrolidine-2-carboxamido)-2-methylpyridin-3-yl)-2-(2-hydroxypyridin-3-yl)pyrazolo[5,1-b]thiazole-7-carboxamide] | > 7.5
21 | COc1ncccc1-c1cn2ncc(C(=O)Nc3cc(NC(=O)[C@@H]4C[C@H](C)CN4C)cnc3C)c2s1 [Example 317, N-(5-((2S,4S)-1,4-dimethylpyrrolidine-2-carboxamido)-2-methylpyridin-3-yl)-2-(2-methoxypyridin-3-yl)pyrazolo[5,1-b]thiazole-7-carboxamide] | > 7.5
22 | COc1ncccc1-c1cn2ncc(C(=O)Nc3cc(NC(=O)CN4CCO[C@H](C)C4)cnc3C)c2s1 [Example 318, (R)-2-(2-methoxypyridin-3-yl)-N-(2-methyl-5-(2-(2-methylmorpholino)acetamido)pyridin-3-yl)pyrazolo[5,1-b]thiazole-7-carboxamide] | > 7.5
23 | COc1ncccc1-c1cn2ncc(C(=O)Nc3cc(NC(=O)CN4CCOC(C)(C)C4)cnc3C)c2s1 [Example 319, N-(5-(2-(2,2-dimethylmorpholino)acetamido)-2-methylpyridin-3-yl)-2-(2-methoxypyridin-3-yl)pyrazolo[5,1-b]thiazole-7-carboxamide] | > 7.5
24 | COc1ncccc1-c1cn2ncc(C(=O)Nc3cc(NC(=O)CN4CCC5(CCOC5)C4)cnc3C)c2s1 (centres unmarked) [Example 320, N-(5-(2-(2-oxa-7-azaspiro[4.4]nonan-7-yl)acetamido)-2-methylpyridin-3-yl)-2-(2-methoxypyridin-3-yl)pyrazolo[5,1-b]thiazole-7-carboxamide] | > 7.5
25 | COc1ncccc1-c1cn2ncc(C(=O)Nc3cc(NC(=O)CN4CCCC5(CC5)C4)cnc3C)c2s1 [Example 321, N-(5-(2-(5-azaspiro[2.5]octan-5-yl)acetamido)-2-methylpyridin-3-yl)-2-(2-methoxypyridin-3-yl)pyrazolo[5,1-b]thiazole-7-carboxamide] | > 7.5
26 | Cc1ncc(NC(=O)C[C@@H]2CCCN2C(C)C)cc1NC(=O)c1cnn2cc(-c3cccnc3O)sc12 [Example 322, (S)-2-(2-hydroxypyridin-3-yl)-N-(5-(2-(1-isopropylpyrrolidin-2-yl)acetamido)-2-methylpyridin-3-yl)pyrazolo[5,1-b]thiazole-7-carboxamide] | > 7.5
27 | COc1ncccc1-c1cn2ncc(C(=O)Nc3cc(NC(=O)C[C@@H]4CCCN4C(C)C)cnc3C)c2s1 [Example 323, (S)—N-(5-(2-(1-isopropylpyrrolidin-2-yl)acetamido)-2-methylpyridin-3-yl)-2-(2-methoxypyridin-3-yl)pyrazolo[5,1-b]thiazole-7-carboxamide] | > 7.5
28 | COc1ncccc1-c1cn2ncc(C(=O)Nc3cc(NC(=O)CN4CCC5(CC5)C4)cnc3C)c2s1 [Example 324, N-(5-(2-(5-azaspiro[2.4]heptan-5-yl)acetamido)-2-methylpyridin-3-yl)-2-(2-methoxypyridin-3-yl)pyrazolo[5,1-b]thiazole-7-carboxamide] | 5.24
29 | COCCn1cc(-c2cn3ncc(C(=O)Nc4cc(NC(=O)CN5CCC[C@@H]5C)cnc4C)c3s2)cn1 [Example 325, (S)-2-(1-(2-methoxyethyl)-1H-pyrazol-4-yl)-N-(2-methyl-5-(2-(2-methylpyrrolidin-1-yl)acetamido)pyridin-3-yl)pyrazolo[5,1-b]thiazole-7-carboxamide] | > 7.5
